For assay [1], the system named is 5′-Cy5-BsPreQ1-RS (RNA, riboswitch) AGAGGUUCUAGCUACACCCUCUAUAAAAAACUAA
Nature of the assay: fluorescence intensity titration of labelled RNA. As to conditions: 100 mM KCl, 1 mM MgCl2; 50 mM Tris pH 7.5, 10% DMSO, room temperature, RNA 50 nM; apparent.

For assay [2], the system named is ab13_14_15 (RNA, riboswitch, abasic at 13, 14 and 15) CUGGGUCGCAGUNNNCCCAGUUAACAAAACAAG
The assay is described as follows: X-ray crystallography.

The test system of assay [3] is 5′-AF647-TtPreQ1-RS (RNA, riboswitch) CUGGGUCGCAGUAACCCCAGUUAACAAAACAAG
The assay is described as follows: fluorescence intensity titration of labelled RNA. The conditions noted are these: 100 mM KCl, 1 mM MgCl2; 50 mM Tris pH 7.5, 10% DMSO, room temperature, RNA 50 nM; apparent.

Assay [4] relates to ab13_14 (RNA, riboswitch, abasic at 13 and 14) CUGGGUCGCAGUNNCCCCAGUUAACAAAACAAG
The assay is described as follows: X-ray crystallography.

Assay [5] has as its system SsPreQ1-RS (unlabeled) (RNA, riboswitch) AGAGGUUCCUAGCUGAUACCCUCUAUAAAAAACUA
The assay is described as follows: WaterLOGSY NMR. The conditions noted are these: 100 mM KCl, 1 mM MgCl2.

For assay [6], the system named is BsPreQ1-RS (unlabeled) (RNA, riboswitch) AGAGGUUCUAGCUACACCCUCUAUAAAAAACUAA
Nature of the assay: WaterLOGSY and CPMG NMR. As to conditions: 100 mM KCl, 1 mM MgCl2; 50 mM Tris-d11 pH 7.5, 5% DMSO-d6; non-binding control, tested at 375 µM.

Assay [7] concerns TtPreQ1-RS (unlabeled) (RNA, riboswitch) CUGGGUCGCAGUAACCCCAGUUAACAAAACAAG
Nature of the assay: WaterLOGSY and CPMG NMR. The conditions noted are these: 100 mM KCl, 1 mM MgCl2; 50 mM Tris-d11 pH 7.5, 5% DMSO-d6; non-binding control, tested at 375 µM.

Assay [8] relates to 5′-AF647-BsPreQ1-RS (RNA, riboswitch) GGAGAGGUUCUAGCUACACCCUCUAUAAAAAACUAA
Nature of the assay: in-line probing. As to conditions: 10 mM KCl, 2 mM MgCl2.

The test system of assay [9] is BsPreQ1-RS (unlabeled) (RNA, riboswitch) AGAGGUUCUAGCUACACCCUCUAUAAAAAACUAA
The assay is described as follows: inherent ligand fluorescence titration. The conditions noted are these: 100 mM KCl, 1 mM MgCl2; 50 mM Tris pH 7.5, 5% DMSO, room temperature, compound 500 nM.

Assay [10] deals with TtPreQ1-RS (unlabeled) (RNA, riboswitch) CUGGGUCGCAGUAACCCCAGUUAACAAAACAAG
Nature of the assay: inherent ligand fluorescence titration. The conditions noted are these: 100 mM KCl, 1 mM MgCl2; 50 mM Tris pH 7.5, 5% DMSO, room temperature, compound 500 nM.

The test system of assay [11] is Ss PreQ1 TTA transcript (RNA, riboswitch) AUGUAGUAAGGAGGUUGUAUGGAAGACGAGAGGUUCCUAGCUGAUACCCUCUAUAAAAAACUAGACACAUGUACAACGUCUGUCUUUUUUAUAGAGAUAGGCGUUUUUUUAUGCGCUUAUCUAAACCCUGUACCAGUUAGUUCGACUAUUUUUAAGGAGU
Nature of the assay: single-round in vitro transcription termination. The conditions noted are these: KCl, MgCl2; 20 mM Tris-HCl pH 8.0, 37 °C, E. coli RNA polymerase.

The values below come from paper PMC6445138 (2019).

`CN(C)CCOc1ccc2[nH]c3ccccc3c2c1`: the KD in assay [1] is 0.1 ± 0.08 µM; in assay [3], 0.1 ± 0.04 µM. In addition, the binding entry in assay [2] (2.56 Å) is listed as “yes”.
As to `CN(C)CCOc1ccc2oc3ccccc3c2c1`, the KD in [1] stood at 0.4 ± 0.1 µM; in assay [3], 0.6 ± 0.2 µM. In addition, the binding result in assay [4] (1.94 Å) is given as “yes”.
Turning to `CN[C@H](C(=O)O)C(C)C`, the binding result in [5] (50 mM Tris-d11 pH 7.5, 5% DMSO-d6, non-binding control, tested at 375 µM) was “no”; in assay [6], “no”; in assay [7], “no”.
Regarding `NCCOc1ccc2oc3ccccc3c2c1`, the binding entry was “yes” in assay [5] (50 mM Tris-d11 pH 7.5, 5% DMSO-d6, compound 375 µM); “yes” in assay [8] (50 mM Tris pH 8.3, 5% DMSO, room temperature, compound 0.1-300 µM); “yes” in [4] (1.8 Å); “yes” in assay [2] (1.8 Å). Besides, the KD is 0.49 ± 0.368 µM in assay [9], 0.534 ± 0.123 µM in assay [1], 0.099 ± 0.038 µM in assay [10] and 0.457 ± 0.202 µM in assay [3]. The compound also showed an EC50 in assay [11] of 359 ± 23 µM.
On to `NCc1c[nH]c2nc(N)[nH]c(=O)c12`, for which the binding result in assay [8] (50 mM Tris pH 8.3, room temperature, compound 10 µM) was “yes”; in assay [4] (1.69 Å) it was “yes”. For the same compound, the values for the KD in assay [1] and in assay [3] were 0.0041 ± 0.0006 µM and 0.0028 ± 0.0004 µM, respectively. The compound also registered an EC50 in [11] of 0.036 ± 0.005 µM.
